According to ChEMBL document CHEMBL3507680, “University of Dundee, Gates Library screen for HepG2 cell viability”:

Assay: Human HepG2 cell viability assay in 384 well format
Assay type: toxicity, cell-based
Parameters: dose 125 nL, time 70.5 hour; cytotoxicity at 70.5 h: concentration not given beside the values
Settings: HepG2 cells, read-out: Inhibition

Row | SMILES | cytotoxicity at 70.5 h [%]
1 | Cc1nc(N(C)C)nc(N2CCC3(CC2)CNC(=O)O3)c1C | -5.15
2 | CC(C)NC(=O)NCc1nnc2n1C(C(=O)N(C)C)CC2 (configuration not stated) | -3.97
3 | CCCc1nnc(NC2CCN(C3CCCC3)CC2)o1 | -12.5
4 | CNC(=O)c1cn2cc(-c3cccc(Cl)c3)n(CC3CC3)c(=O)c2n1 | -8.05
5 | CCn1nnc2c1C(COCC(=O)N(C)C)CN(Cc1ccco1)C2 (configuration not stated) | 10.6
6 | CC[C@H](C)[C@@H](CO)NC(C)Cc1ccc(Cl)cc1 (some centres not stated) | -2.7
7 | CCN(CC)C(=O)C1CCCN(c2ncnc3oc(C)nc23)C1 (configuration not stated) | -5.71
8 | Cc1cnc(-c2nc(NC3CC3)ncc2-c2cc(C)no2)cn1 | 12
9 | Cc1nccc(C(=O)N2CCCC(c3cc(C(F)(F)F)[nH]n3)C2)n1 (configuration not stated) | -2.27
10 | CN1CC2(CCN(C(=O)CCc3nc4cccnc4n3C)C2)OC1=O (configuration not stated) | 15.3
11 | O=C(NCCO)Nc1cnc2cc(Cl)ccc2c1O | -5.27
12 | C[C@@H]1CN(C(=O)CCc2cnn(C)c2)C[C@@]1(O)C1CCC1 | -5.7
13 | Cc1noc(CCCC(=O)NC(C)c2cn(-c3ccccc3)nn2)n1 (configuration not stated) | -3
14 | CC(C)c1noc(CN(Cc2ccccc2F)C2CC2)n1 | -12
15 | CCS(=O)(=O)NC[C@]12COC[C@H]1CN(CCc1ccccc1)C2 | -5.39
16 | CCS(=O)(=O)Nc1ccn(Cc2ccc(F)cc2Cl)n1 | -8.72
17 | CC(C)NC(=O)CC1COC2(CCN(Cc3cccnc3)CC2)C1 (configuration not stated) | -12.2
18 | COCC(=O)NC1CCN(c2cccc(OC(F)(F)F)c2)C1=O (configuration not stated) | -7.95
19 | O=C(NCCn1ccnc1)NCC(c1ccco1)N1CCCCC1 (configuration not stated) | -9.78

Row | SMILES | cytotoxicity at 70.5 h [%]
20 | CS(=O)(=O)NC1CCN(C(=O)c2cnc(-c3cccnc3)nc2)CC1 | -7.35
21 | CCn1nc(C(C)C)cc1C(=O)NCC1CCCN(c2ccccn2)C1 (configuration not stated) | -6.28
22 | CC(C)Cc1cc(C(=O)N2CCCC(n3cncn3)C2)[nH]n1 (configuration not stated) | -7.4
23 | Cc1noc(C)c1CN(C)C(=O)C1CCCCN1CC(C)C (configuration not stated) | 5.24
24 | CC(C)N(C)CC(=O)N(C)Cc1nc(C(F)(F)F)cs1 | 2.33
25 | N#Cc1cccc(OCC(=O)N(Cc2ccsc2)C2CC2)c1 | -12
26 | CC(O)(CNc1ccccn1)c1ccccc1 (configuration not stated) | 19.5
27 | COc1cccc2c1CCCCN2C(=O)c1oc(C)nc1C | 0.154
28 | Cc1csc(N2CCCN(C(=O)Cn3cncn3)CC2)n1 | -2.46
29 | Cc1nc2ccccn2c1CN1C[C@@H](CN2CCOCC2)[C@@H](CO)C1 | 28.6
30 | CN(C)C(CNC(=O)N(Cc1ccco1)C1CC1)c1cccs1 (configuration not stated) | -11.4
31 | CCCN1CCN(C(=O)c2scnc2C)CC1 | -3.56
32 | O=C(N[C@@H]1CN(Cc2cccs2)[C@@H]2CCCO[C@@H]21)C1CC1 | -10.5
33 | Cc1cc(C)n(CC2CN(CCc3ccncc3)CCO2)n1 (configuration not stated) | -2.71
34 | COCC1N(S(=O)(=O)c2cn(C)cn2)[C@H]2CC[C@]1(O)CC2 (some centres not stated) | -7.28
35 | CCCNC(=O)NC(=O)CNc1c(F)cccc1N1CCCC1 | -17.8
36 | c1coc(-c2noc(CN3CCCCC3Cn3cncn3)n2)c1 (configuration not stated) | 5.99
37 | Cc1cc(C)n(C2CCCN(C(=O)c3ccc(N(C)C)nn3)C2)n1 (configuration not stated) | -4.23
38 | Cc1cc(F)c(C(C(=O)O)N2CCN(Cc3ccccn3)CC2)cc1Cl (configuration not stated) | -6.6

Row | SMILES | cytotoxicity at 70.5 h [%]
39 | CCS(=O)(=O)N1CCC[C@]2(C(=O)N(C)C)CN(c3ccccn3)C[C@@H]2C1 | -0.152
40 | CC1CCC(NC(=O)NCC(C)(C)CCS(C)(=O)=O)CC1 (configuration not stated) | -4.98
41 | COCCN(Cc1cccnc1)S(=O)(=O)c1cccc(F)c1F | 5.02
42 | NC(=O)C1CCN(C(=O)NCc2ccc(-c3ccn[nH]3)cc2)CC1 | -6.11
43 | COc1cc2ccccc2cc1C(=O)N1CCCC(c2nncn2C)C1 (configuration not stated) | -11.4
44 | NC(=O)Cn1cc(NC(=O)N2CCN(c3ccccc3)CC2)cn1 | -12.6
45 | c1cc2c(cc1CN1C[C@@H]3COC[C@@H](N4CCCC4)[C@@H]3C1)OCO2 | -6.89
46 | CCS(=O)(=O)N1CC(=O)N(Cc2ccccc2OC)CC(O)C1 (configuration not stated) | 17.6
47 | Cc1nc(C)n(CC2CCCN2CC(=O)NCCc2ccsc2)n1 (configuration not stated) | 3.16
48 | CC(C)N1CCc2c(c(COc3cccnc3)nn2CC2CC2)C1 | -2.06
49 | Cc1nccc(C2CCCN(S(=O)(=O)N3CCOCC3)C2)n1 (configuration not stated) | 19.2
50 | CCN(CC)C(=O)C1CCN(C(=O)Nc2cccnc2OC)CC1 | 34.4
51 | CCn1cnnc1CNC(=O)N1CCN(c2ccccc2O)CC1 | -13.9
52 | Cc1csc([C@@H]2C[C@@H]3CCN(C(=O)c4cnccn4)C[C@H]3O2)n1 | -4.76
53 | Cc1cc(C(F)(F)F)nn1CC(C)C(=O)Nc1ccccn1 (configuration not stated) | -12.5
54 | CS(=O)(=O)N1CCc2c(cccc2NC(=O)CC(F)(F)F)C1 | -1.76
55 | O=C(CN1CCC(Nc2ncccn2)CC1)Nc1ccccc1 | -5.9
56 | CCCN1CCN(C(=O)c2cccc(C)n2)[C@H]2CS(=O)(=O)C[C@H]21 | 14.2
57 | O=C(N1CCOCC1)N1CCc2ncnc(Oc3cccnc3)c2CC1 | -2.03
